Read-outs that look alike come from different tables or passages of the source.
Legend:
TCTP = biological target: T1, TCTP (Homo sapiens, UniProt P13693); experiment: Interaction with TCTP by surface plasmon resonance (SPR), Biacore T200; format: binding; conditions: for Kd: TCTP bonded to chip, Biacore T200
T1 sequence (P13693 1-172): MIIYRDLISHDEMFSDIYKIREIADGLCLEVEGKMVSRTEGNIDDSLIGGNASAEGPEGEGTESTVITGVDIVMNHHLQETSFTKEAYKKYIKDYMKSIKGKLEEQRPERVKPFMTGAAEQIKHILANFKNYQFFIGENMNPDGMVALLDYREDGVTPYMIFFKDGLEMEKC
Method: The interaction of the synthesized molecules with TCTP was evaluated by the surface plasmon resonance (SPR) technique using the Biacore T200 apparatus.
A beam of polarized monochromatic light illuminates a glass interface between two media with different refractive indices, since the angle of incidence is greater than the limiting angle, all the light is reflected, a phenomenon known as total internal reflection. There is then no refraction but an electromagnetic component of the light, the evanescent wave propagates over a distance equivalent to its own wavelength, perpendicular to the interface. At the level of the gold leaf located at the interface between the two media, a resonance between the gold plasmons and the evanescent wave is observed, which results in a loss of light energy in the beam reflected at a precise angle called the resonance angle. This angle is sensitive to the refractive index of the medium wherein the evanescent wave propagates.
A continuous measurement of the variations in the angle of refraction is carried out using a micro-refractometer producing a sensorgram that allows the fixation of the molecules injected into the microfluidic cell to be monitored in real time. The resonance signal is expressed in resonance units (RU) and reports what is present at a given time in the microfluidic cell.
Thus, TCTP is bonded to a chip consisting of a layer of dextran on a gold foil, which in turn is placed on a glass plate. This layer is sandwiched between a microfluidic cell and a prism.
The synthesized compounds are passed through the microfluidic cell and their interaction is evaluated through the received SPR signal (Table 1).

[1] = test system: human cancer line HCT116 (colorectal carcinoma); experiment: Cytotoxic activity on HCT116, 72 hours incubation; format: cell-based; conditions: for IC50: Homo sapiens, HCT-116, HCT116, 72 hours incubation, concentration inducing 50% cell death; for antiproliferative activity profile (in words): compared with sertraline; for % (viability) at 1 μM: HCT116, 1 μM; for % (viability) at 10 μM: HCT116, 10 μM
Method: The cytotoxic activity of the prepared compounds was evaluated on the human cancer line HCT116 (colorectal carcinoma). The selected line was incubated at 37° C. in the presence of one of the prepared compounds added to the culture medium at various concentrations. The inhibitory concentration inducing 50% cell death (IC50) was determined after 72 hours incubation for each compound (Table 1).

human HCT116 cells = experiment: Inhibition of cell growth, CellTiter Glo assay; conditions: for GI50 / CC50: Homo sapiens
Method: The viability and proliferation of human HCT116 cells is measured using the “CellTiter Glo®” assay (Promega), which is a luminescent measure of the number of living cells. Sertraline and AC070 were tested at 10 concentrations and results are expressed as GI50, TGI, LC50 and IC50 relative to control cells (DMSO).
The CellTiter-Glo® assay is a homogeneous method for determining the number of viable cells in culture based on a quantification of the ATP present, an indicator of metabolically active cells. The homogeneous test procedure involves the addition of a single reagent (the CellTiter-Glo® reagent) directly to the cultured cells in serum-enriched medium.
The results of the test are reported in the following Tables 2 and 3 (Table 2: sertraline and Table 3: AC070): […]

p53 protein = experiment: Overexpression of p53 protein, Western blot; format: cell-based; conditions: 10 μM
Method: The compound AC014 is capable of inducing overexpression of p53 (FIG. 1).
The Western blot was carried out according to the protocol described in the following article: Amson R, Pece S, Lespagnol A, Vyas R, Mazzarol G, Tosoni D, Colaluca I, Viale G, Rodrigues-Ferreira S, Wynendaele J, Chaloin O, Hoebeke J, Marine J C, Di Fiore P P, Telerman A. Nat Med. 2011 Dec. 11; 18(1):91-9.
The following antibodies were used in the Western blot assay: anti-TCTP antibodies were generated against the whole human-derived TCTP. These polyclonal antibodies were purified by affinity column affinity coupled to TCTP (Agro-Bio). Anti-P53 1C12 mouse antibody (Cell Signaling Technology) was used at a dilution of 1/1000.
Secondary antibodies (antirabbit and antimouse) conjugated to HRP were used at a dilution of 1/5000 to visualize the signals by Western blots.

Compound	affinity for TCTP (in words) (TCTP)	Kd (TCTP) [µM]	IC50 [1] [µM]	antiproliferative activity profile (in words) [1]	% (viability) at 10 μM [1]	also measured
CC(=O)NC1CCC(c2ccc3ccccc3c2)c2ccccc21 (centres unmarked) [AC070, N-(1,2,3,4-tetrahydro-[1,2′-binaphthalen]-4-yl) acetamide]						cytotoxicity compared with sertraline (human HCT116 cells): less cytotoxic than sertraline; activity on cell growth compared with sertraline (human HCT116 cells; HCT116): slightly less active than sertraline; TGI50 1 (human HCT116 cells; HCT116, CellTiter Glo, determination 1): 1.48 µM; TGI50 2 (human HCT116 cells; HCT116, CellTiter Glo, determination 2): 1.44 µM; TGI50 3 (human HCT116 cells; HCT116, CellTiter Glo, determination 3): 1.41 µM; TGI50 Mean (human HCT116 cells; HCT116, CellTiter Glo, mean): 1.44 µM; TGI50 Median (human HCT116 cells; HCT116, CellTiter Glo, median): 1.44 µM; GI50 (human HCT116 cells; HCT-116, read-out: GI50 1): 0.909 µM; GI50 (human HCT116 cells; HCT-116, read-out: GI50 2): 0.881 µM; GI50 (human HCT116 cells; HCT-116, read-out: GI50 3): 0.878 µM; GI50 (human HCT116 cells; HCT-116, read-out: GI50 Mean): 0.89 µM; GI50 (human HCT116 cells; HCT-116, read-out: GI50 Median): 0.889 µM; CC50 (human HCT116 cells; HCT-116, read-out: LC50 1): 2.34 µM; CC50 (human HCT116 cells; HCT-116, read-out: LC50 2): 2.3 µM; CC50 (human HCT116 cells; HCT-116, read-out: LC50 3): 2.2 µM; CC50 (human HCT116 cells; HCT-116, read-out: LC50 Mean): 2.28 µM; CC50 (human HCT116 cells; HCT-116, read-out: LC50 Median): 2.28 µM; GI50 (human HCT116 cells; HCT-116, read-out: cell growth inhibition constant GI50): 0.889 µM; CC50 (human HCT116 cells; HCT-116, read-out: lethal concentration LC50): 2.2 µM
CC(=O)N[C@@H]1CC[C@H](c2ccc(C(=O)O)cc2)c2ccccc21 (relative stereo) [VM055-cis, Cis-4-(4-acetamido-1,2,3,4-tetrahydronaphthalen-1-yl)benzoic acid]		176				
CC(=O)NC1CCC(c2cc(SC3OC(COC(C)=O)C(OC(C)=O)C(OC(C)=O)C3OC(C)=O)c(C(=O)Nc3cccc4cccnc34)c(S[C@@H]3OC(COC(C)=O)[C@@H](OC(C)=O)C(OC(C)=O)C3OC(C)=O)c2)c2ccccc21 (stereo in doubt) [AC249-cis, Cis-(2S,3R,4S,5R,6R)-2-((5-((4S)-4-acetamido-1,2,3,4-tetrahydronaphthalen-1-yl)-2-(quinolin-8-ylcarbamoyl)-3-(((2R,3S,4R,5S,6S)-3,4,5-triacetoxy-6-(acetoxymethyl)tetrahydro-2H-pyran-2-yl)thio)phenyl)thio)-6-(acetoxymethyl)tetrahydro-2H-pyran-3,4,5-triyl triacetate]		8 ± 2				
CC(=O)NC1CCC(c2ccc(Br)cc2)c2ccccc21 (mixture of isomers) [AC088, N-(4-(4-bromophenyl)-1,2,3,4-tetrahydronaphthalen-1-yl)acetamide]		135 ± 37			10 μM: 33% (viability)	
CC(=O)N[C@@H]1CC[C@H](c2ccc(C(=O)NC3OC(COC(C)=O)C(OC(C)=O)C(OC(C)=O)C3OC(C)=O)cc2)c2ccccc21 (stereo in doubt) [VM060-cis, Cis-(2R,3R,4S,5R,6R)-2-(4-acetamido-1,2,3,4-tetrahydronaphthalen-1-yl)benzamido)-6-(acetoxy-methyl)tetrahydro-2H-pyran-3,4,5-triyl triacetate]		26 ± 8			10 μM: 15% (viability)	
c1ccc2c(c1)CCCC2c1ccc2[nH]ccc2c1 (centres unmarked) [AC082, 5-(1,2,3,4-tetrahydronaphthalen-1-yl)-1H-indole]		123 ± 33			33%	% (viability) at 1 μM [1]: 9 ± 1%
Ic1cccc(C2CCCc3ccccc32)c1 (centres unmarked) [AC041, 1-(3-iodophenyl)-1,2,3,4-tetrahydronaphthalene]	excellent affinity	59 ± 30	9 ± 1.2	identical to that of sertraline		
COc1ccc2c(c1)CCCC2c1ccc(Cl)c(Cl)c1 (centres unmarked) [AC095, 1-(3,4-dichlorophenyl)-6-methoxy-1,2,3,4-tetrahydronaphthalene]		150			10 μM: 40% (viability)	
CC(=O)NC1CCC(c2cccc(S[C@@H]3OC(COC(C)=O)[C@@H](OC(C)=O)C(OC(C)=O)C3OC(C)=O)c2)c2ccccc21 (stereo in doubt) [AC268-cis, Cis-(2S,3R,4S,5R,6R)-2-((3-((4S)-4-acetamido-1,2,3,4-tetrahydronaphthalen-1-yl)phenyl)thio)-6-(acetoxymethyl)tetrahydro-2H-pyran-3,4,5-triyl triacetate]		170 ± 31				
COc1ccc2c(c1)CCCC2c1cccc(Cl)c1 (centres unmarked) [AC101, 1-(3-chlorophenyl)-6-methoxy-1,2,3,4-tetrahydronaphthalene]		145 ± 34	7 ± 0.4			

Further lines, with some results ahead:

affinity for TCTP (in words) (TCTP)	Kd (TCTP) [µM]	Compound	IC50 [1] [µM]	antiproliferative activity profile (in words) [1]	% (viability) at 10 μM [1]	also measured
excellent affinity	28.5 ± 10	CC(=O)N[C@@H]1CC[C@H](c2ccc(C(=O)OC(C)C)cc2)c2ccccc21 (relative stereo) [AC056, Cis-isopropyl 4-(4-acetamido-1,2,3,4-tetrahydronaphthalen-1-yl)benzoate]	17 ± 3	identical to that of sertraline		
excellent affinity	29 ± 7	CC(C)OC(=O)c1ccc(C2CCCc3ccccc32)cc1 (centres unmarked) [AC034, Isopropyl 4-(1,2,3,4-tetrahydronaphthalen-1-yl)benzoate]	25 ± 9	identical to that of sertraline		
excellent affinity	14 ± 7	Clc1ccc(C2CCCc3ccccc32)cc1Cl (centres unmarked) [AC096, 1-(3,4-dichlorophenyl)-1,2,3,4-tetrahydronaphthalene]		identical to that of sertraline		% (viability) at 1 μM [1]: 1 μM: 29 ± 3%.
excellent affinity	7 ± 3	c1ccc2c(c1)CCCC2c1ccc2ccccc2c1 (centres unmarked) [AC014, 1,2,3,4-tetrahydro-1,2′-binaphthalene]	8 ± 1	identical to that of sertraline		expression of the p53 protein (p53 protein): induces; induction of p53 compared to sertraline (p53 protein): more pronounced
excellent affinity	16 ± 11	CC(=O)NC1CCC(c2cccc(I)c2)c2ccccc21 (mixture of isomers) [AC087, N-(4-(3-iodophenyl)-1,2,3,4-tetrahydronaphthalen-1-yl)acetamide]		identical to that of sertraline	10 μM: 33% (viability)	
excellent affinity	24 ± 16	c1ccc2c(c1)OCCC2c1ccc2ccccc2c1 (centres unmarked) [AC069, 4-(naphthalen-2-yl)chroman]		identical to that of sertraline	33%	% (viability) at 1 μM [1]: 0%
excellent affinity	30	c1ccc2c(c1)SCCC2c1ccc2ccccc2c1 (centres unmarked) [AC085, 4-(naphthalen-2-yl)thiochroman]	25 ± 1	identical to that of sertraline		

Reference: US20200253996A1, “TCTP INHIBITING AGENTS FOR THE TREATMENT OF PROLIFERATIVE DISEASES, INFECTIOUS DISEASES, ALLERGIES, INFLAMMATIONS AND/OR ASTHMA” (UNIVERSITE PARIS-SUD, priority 2017, published 2020)
